Measured values: the kinase profiling compilation of Christmann-Franck et al. (2016)

Legend:
Experiment in all cases: radiometric filter-binding kinase assay, Kinase HotSpot
Conditions in all cases: compound 0.5 µM; ATP 10 µM
SLK (human) = SLK (human) (UniProt Q9H2G2)
OXSR1 (human) = OXSR1 (human) (UniProt O95747)
TEC (human) = TEC (human) (UniProt P42680)
HIPK3 (human) = HIPK3 (human) (UniProt Q9H422)
RPS6KB2 (human) = RPS6KB2 (human) (UniProt Q9UBS0)
ALK (human) = ALK (human) (UniProt Q9UM73)
PHKG1 (human) = PHKG1 (human) (UniProt Q16816)
PKN1 (human) = PKN1 (human) (UniProt Q16512)
ULK1 (human) = ULK1 (human) (UniProt O75385)
PRKX (human) = PRKX (human) (UniProt P51817)
RET (human) = RET (human) (UniProt P07949)
TAOK3 (human) = TAOK3 (human) (UniProt Q9H2K8)
CSF1R (human) = CSF1R (human) (UniProt P07333)
TNK2 (human) = TNK2 (human) (UniProt Q07912)
PIM3 (human) = PIM3 (human) (UniProt Q86V86)
CAMK1D (human) = CAMK1D (human) (UniProt Q8IU85)
MELK (human) = MELK (human) (UniProt Q14680)
NEK7 (human) = NEK7 (human) (UniProt Q8TDX7)
PDGFRA (human) = PDGFRA (human) (UniProt P16234)
NLK (human) = NLK (human) (UniProt Q9UBE8)
HIPK1 (human) = HIPK1 (human) (UniProt Q86Z02)
FGFR3 (human) = FGFR3 (human) (UniProt P22607)
ACVR1B (human) = ACVR1B (human) (UniProt P36896)
STK24 (human) = STK24 (human) (UniProt Q9Y6E0)
FER (human) = FER (human) (UniProt P16591)
MAP2K2 (human) = MAP2K2 (human) (UniProt P36507)
MATK (human) = MATK (human) (UniProt P42679)
PTK2 (human) = PTK2 (human) (UniProt Q05397)
PRKCH (human) = PRKCH (human) (UniProt P24723)
KDR (human) = KDR (human) (UniProt P35968)
MAP3K3 (human) = MAP3K3 (human) (UniProt Q99759)
LIMK1 (human) = LIMK1 (human) (UniProt P53667)
ACVRL1 (human) = ACVRL1 (human) (UniProt P37023)
VRK1 (human) = VRK1 (human) (UniProt Q99986)
CSNK1A1 (human) = CSNK1A1 (human) (UniProt P48729)
ERBB4 (human) = ERBB4 (human) (UniProt Q15303)
RPS6KA4 KD2 (human) = RPS6KA4 KD2 (human) (UniProt O75676)
CDC42BPA (human) = CDC42BPA (human) (UniProt Q5VT25)
MAP3K14 (human) = MAP3K14 (human) (UniProt Q99558)
AURKC (human) = AURKC (human) (UniProt Q9UQB9)
AURKC (human), sequence (Q9UQB9 whole entry, looked up): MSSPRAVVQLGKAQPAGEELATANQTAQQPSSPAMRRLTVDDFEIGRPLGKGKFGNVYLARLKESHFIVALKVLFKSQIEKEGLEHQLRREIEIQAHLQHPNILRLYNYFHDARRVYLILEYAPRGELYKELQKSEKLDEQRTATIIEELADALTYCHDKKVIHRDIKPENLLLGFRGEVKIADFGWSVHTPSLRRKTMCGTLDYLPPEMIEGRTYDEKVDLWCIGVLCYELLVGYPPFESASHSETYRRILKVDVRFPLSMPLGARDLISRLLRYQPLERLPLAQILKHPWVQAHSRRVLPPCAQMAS

PHKG1 (human), sequence (Q16816 whole entry, looked up): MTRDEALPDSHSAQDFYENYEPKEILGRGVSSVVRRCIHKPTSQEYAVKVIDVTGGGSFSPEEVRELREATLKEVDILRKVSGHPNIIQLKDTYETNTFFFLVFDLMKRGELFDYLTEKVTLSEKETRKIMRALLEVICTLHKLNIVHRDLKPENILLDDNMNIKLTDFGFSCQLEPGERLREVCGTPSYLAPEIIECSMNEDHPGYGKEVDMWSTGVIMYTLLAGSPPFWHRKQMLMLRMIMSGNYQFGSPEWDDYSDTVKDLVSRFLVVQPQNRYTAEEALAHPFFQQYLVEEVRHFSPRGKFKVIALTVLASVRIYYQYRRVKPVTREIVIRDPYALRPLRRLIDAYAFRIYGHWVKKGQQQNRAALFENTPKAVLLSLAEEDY
ACVRL1 (human), sequence (P37023 whole entry, looked up): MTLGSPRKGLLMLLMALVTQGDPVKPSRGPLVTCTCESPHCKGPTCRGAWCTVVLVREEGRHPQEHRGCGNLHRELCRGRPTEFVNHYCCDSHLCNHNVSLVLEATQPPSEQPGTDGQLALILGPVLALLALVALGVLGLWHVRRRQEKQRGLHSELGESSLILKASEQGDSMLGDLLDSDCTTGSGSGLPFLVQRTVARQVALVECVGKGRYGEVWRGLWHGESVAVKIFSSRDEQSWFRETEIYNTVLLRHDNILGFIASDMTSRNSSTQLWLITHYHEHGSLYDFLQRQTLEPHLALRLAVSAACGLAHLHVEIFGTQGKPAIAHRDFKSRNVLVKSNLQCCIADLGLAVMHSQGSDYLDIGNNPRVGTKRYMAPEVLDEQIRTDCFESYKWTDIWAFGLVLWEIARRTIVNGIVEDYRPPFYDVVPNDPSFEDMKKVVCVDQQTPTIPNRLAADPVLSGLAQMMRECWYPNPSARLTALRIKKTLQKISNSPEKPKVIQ
CSNK1A1 (human), sequence (P48729 whole entry, looked up): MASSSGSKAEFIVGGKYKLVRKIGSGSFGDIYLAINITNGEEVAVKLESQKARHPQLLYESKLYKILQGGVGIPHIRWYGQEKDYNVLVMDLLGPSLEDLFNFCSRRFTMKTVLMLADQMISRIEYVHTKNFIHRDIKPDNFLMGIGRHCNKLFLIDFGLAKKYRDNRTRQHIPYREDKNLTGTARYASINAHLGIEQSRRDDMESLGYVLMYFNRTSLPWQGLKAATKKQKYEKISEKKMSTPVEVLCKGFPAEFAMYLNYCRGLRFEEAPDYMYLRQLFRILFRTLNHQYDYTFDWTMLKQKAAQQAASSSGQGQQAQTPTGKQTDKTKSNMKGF
MELK (human), sequence (Q14680 whole entry, looked up): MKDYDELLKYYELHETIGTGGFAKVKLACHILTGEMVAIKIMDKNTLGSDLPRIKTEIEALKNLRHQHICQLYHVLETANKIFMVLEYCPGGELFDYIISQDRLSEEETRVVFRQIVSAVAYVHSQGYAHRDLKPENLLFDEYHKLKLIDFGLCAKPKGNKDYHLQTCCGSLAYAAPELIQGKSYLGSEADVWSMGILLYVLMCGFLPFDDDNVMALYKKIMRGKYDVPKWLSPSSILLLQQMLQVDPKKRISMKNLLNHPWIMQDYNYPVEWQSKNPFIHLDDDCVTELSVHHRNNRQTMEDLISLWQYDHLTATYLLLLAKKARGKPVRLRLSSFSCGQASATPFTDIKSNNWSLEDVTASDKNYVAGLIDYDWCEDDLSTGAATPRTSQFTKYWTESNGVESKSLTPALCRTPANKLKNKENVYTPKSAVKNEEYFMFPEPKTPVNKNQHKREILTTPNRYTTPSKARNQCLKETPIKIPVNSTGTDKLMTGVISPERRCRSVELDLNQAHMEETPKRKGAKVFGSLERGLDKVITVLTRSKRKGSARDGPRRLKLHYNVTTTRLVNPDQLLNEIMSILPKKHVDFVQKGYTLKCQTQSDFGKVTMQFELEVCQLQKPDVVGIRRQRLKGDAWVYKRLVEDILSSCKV
PTK2 (human), sequence (Q05397 whole entry, looked up): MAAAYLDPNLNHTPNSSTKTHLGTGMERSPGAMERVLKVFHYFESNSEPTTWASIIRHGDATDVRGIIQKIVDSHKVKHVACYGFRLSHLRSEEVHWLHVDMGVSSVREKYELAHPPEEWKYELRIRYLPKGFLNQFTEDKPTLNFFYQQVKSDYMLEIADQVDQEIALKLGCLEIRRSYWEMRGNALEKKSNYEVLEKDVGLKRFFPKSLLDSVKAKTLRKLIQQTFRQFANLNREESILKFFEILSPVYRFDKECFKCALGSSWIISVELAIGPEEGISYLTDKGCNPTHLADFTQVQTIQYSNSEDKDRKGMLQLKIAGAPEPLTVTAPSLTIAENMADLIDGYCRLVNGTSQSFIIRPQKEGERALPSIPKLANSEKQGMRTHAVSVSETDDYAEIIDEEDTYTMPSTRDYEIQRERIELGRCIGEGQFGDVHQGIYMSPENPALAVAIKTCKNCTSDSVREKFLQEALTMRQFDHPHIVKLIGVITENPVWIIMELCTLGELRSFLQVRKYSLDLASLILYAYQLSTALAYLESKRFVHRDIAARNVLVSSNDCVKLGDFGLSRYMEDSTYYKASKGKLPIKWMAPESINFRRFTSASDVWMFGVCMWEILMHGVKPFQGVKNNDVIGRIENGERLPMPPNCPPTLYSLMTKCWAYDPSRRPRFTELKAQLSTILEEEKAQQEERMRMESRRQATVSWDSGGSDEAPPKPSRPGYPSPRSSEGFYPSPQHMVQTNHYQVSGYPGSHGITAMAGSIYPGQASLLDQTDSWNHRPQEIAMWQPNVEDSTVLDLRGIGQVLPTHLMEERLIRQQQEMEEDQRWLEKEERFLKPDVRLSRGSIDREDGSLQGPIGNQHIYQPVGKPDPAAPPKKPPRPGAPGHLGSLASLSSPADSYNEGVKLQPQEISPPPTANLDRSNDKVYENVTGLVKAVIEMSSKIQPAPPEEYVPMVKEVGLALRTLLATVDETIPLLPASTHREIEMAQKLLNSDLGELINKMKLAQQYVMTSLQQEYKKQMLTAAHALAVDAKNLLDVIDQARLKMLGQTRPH
KDR (human), sequence (P35968 whole entry, looked up): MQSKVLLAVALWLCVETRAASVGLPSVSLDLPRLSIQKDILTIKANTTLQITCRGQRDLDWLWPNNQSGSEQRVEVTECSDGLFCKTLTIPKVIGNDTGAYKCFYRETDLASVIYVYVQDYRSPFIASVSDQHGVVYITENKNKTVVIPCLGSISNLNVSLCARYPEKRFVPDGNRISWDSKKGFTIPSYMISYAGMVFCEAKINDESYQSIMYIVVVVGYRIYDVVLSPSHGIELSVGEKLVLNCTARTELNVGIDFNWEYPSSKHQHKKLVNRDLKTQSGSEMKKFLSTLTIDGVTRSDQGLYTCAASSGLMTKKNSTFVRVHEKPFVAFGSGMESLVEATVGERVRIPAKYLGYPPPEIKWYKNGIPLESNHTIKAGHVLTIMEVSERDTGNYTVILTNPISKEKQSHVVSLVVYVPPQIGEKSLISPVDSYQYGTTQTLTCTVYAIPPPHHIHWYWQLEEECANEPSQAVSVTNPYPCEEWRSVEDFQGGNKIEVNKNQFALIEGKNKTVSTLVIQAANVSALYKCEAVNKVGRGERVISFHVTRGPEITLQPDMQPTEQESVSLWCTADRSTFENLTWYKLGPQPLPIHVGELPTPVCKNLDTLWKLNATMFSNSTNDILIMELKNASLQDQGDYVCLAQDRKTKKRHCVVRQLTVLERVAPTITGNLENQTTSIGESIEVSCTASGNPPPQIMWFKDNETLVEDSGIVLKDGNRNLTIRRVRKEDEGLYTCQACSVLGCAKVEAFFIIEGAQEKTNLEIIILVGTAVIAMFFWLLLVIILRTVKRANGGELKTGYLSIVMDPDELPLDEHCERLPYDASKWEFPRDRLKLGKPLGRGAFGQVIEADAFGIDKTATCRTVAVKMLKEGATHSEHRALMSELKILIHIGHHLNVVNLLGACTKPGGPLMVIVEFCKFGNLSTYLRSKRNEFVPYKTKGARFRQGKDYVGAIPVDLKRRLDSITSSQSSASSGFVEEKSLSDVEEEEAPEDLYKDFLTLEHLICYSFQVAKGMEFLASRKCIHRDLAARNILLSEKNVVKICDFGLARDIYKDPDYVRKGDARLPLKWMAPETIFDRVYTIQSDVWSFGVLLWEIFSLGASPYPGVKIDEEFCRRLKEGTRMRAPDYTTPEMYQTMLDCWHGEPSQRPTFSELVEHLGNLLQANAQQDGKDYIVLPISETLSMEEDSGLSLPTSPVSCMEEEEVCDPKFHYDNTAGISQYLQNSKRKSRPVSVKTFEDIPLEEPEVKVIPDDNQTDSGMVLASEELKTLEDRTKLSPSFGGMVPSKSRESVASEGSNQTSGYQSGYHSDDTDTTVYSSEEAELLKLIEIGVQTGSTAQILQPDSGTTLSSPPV
VRK1 (human), sequence (Q99986 whole entry, looked up): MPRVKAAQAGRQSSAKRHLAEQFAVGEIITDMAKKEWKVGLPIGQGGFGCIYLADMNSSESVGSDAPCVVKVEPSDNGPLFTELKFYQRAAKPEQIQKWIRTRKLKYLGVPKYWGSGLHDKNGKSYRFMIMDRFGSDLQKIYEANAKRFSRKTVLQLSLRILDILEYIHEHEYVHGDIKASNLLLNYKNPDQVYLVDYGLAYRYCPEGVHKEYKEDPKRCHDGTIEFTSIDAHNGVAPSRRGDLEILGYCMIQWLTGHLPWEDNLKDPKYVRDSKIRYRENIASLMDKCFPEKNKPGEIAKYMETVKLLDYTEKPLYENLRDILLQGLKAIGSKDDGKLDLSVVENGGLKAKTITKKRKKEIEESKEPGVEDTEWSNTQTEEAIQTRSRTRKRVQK

Structure (SMILES) | residual activity (SLK (human)) [%] | residual activity (OXSR1 (human)) [%] | residual activity (TEC (human)) [%] | residual activity (HIPK3 (human)) [%] | residual activity (RPS6KB2 (human)) [%] | residual activity (ALK (human)) [%] | residual activity (PHKG1 (human)) [%] | residual activity (PKN1 (human)) [%] | residual activity (ULK1 (human)) [%] | residual activity (PRKX (human)) [%] | residual activity (RET (human)) [%] | residual activity (TAOK3 (human)) [%] | residual activity (CSF1R (human)) [%] | residual activity (TNK2 (human)) [%] | residual activity (PIM3 (human)) [%] | residual activity (CAMK1D (human)) [%] | residual activity (MELK (human)) [%] | residual activity (NEK7 (human)) [%] | residual activity (PDGFRA (human)) [%] | residual activity (NLK (human)) [%] | also measured
COc1ccc2c(c[n+](C)c3c4cc5c(cc4ccc23)OCO5)c1OC | 87.4 | 94.8 | 116 | 96.6 | 99.6 | 105 | 90.4 | 101 | 109 | 95.1 | 97 | 96.1 | 99 | 101 | 99.6 | 105 | 89.6 | 98.9 | 101 | 102 | residual activity (HIPK1 (human)): 100%; residual activity (FGFR3 (human)): 99.1%; residual activity (ACVR1B (human)): 110%; residual activity (STK24 (human)): 84.2%; residual activity (FER (human)): 89.8%; residual activity (MAP2K2 (human)): 95.6%; residual activity (MATK (human)): 89.5%; residual activity (PTK2 (human)): 102%; residual activity (PRKCH (human)): 101%; residual activity (KDR (human)): 104%; residual activity (MAP3K3 (human)): 101%; residual activity (LIMK1 (human)): 109%; residual activity (ACVRL1 (human)): 99.2%; residual activity (VRK1 (human)): 106%; residual activity (CSNK1A1 (human)): 103%; residual activity (ERBB4 (human)): 99.9%; residual activity (RPS6KA4 KD2 (human)): 88.3%; residual activity (CDC42BPA (human)): 84.8%; residual activity (MAP3K14 (human)): 88.1%; residual activity (AURKC (human)): 93.5%
CC[n+]1c(/C=C/N(C)c2ccccc2)n(-c2ccccc2)c2ccc(-c3nc4ccccc4s3)cc21 | 101 | 94.2 | 161 | 105 | 93.2 | 99.1 | 96.1 | 85.7 | 90.9 | 108 | 95.6 | 116 | 108 | 98 | 98.8 | 99.7 | 93.4 | 95.4 | 95.2 | 105 | residual activity (HIPK1 (human)): 99.5%; residual activity (FGFR3 (human)): 88.4%; residual activity (ACVR1B (human)): 110%; residual activity (STK24 (human)): 99.2%; residual activity (FER (human)): 98.9%; residual activity (MAP2K2 (human)): 88.5%; residual activity (MATK (human)): 96.4%; residual activity (PTK2 (human)): 108%; residual activity (PRKCH (human)): 101%; residual activity (KDR (human)): 93.9%; residual activity (MAP3K3 (human)): 109%; residual activity (LIMK1 (human)): 98.3%; residual activity (ACVRL1 (human)): 110%; residual activity (VRK1 (human)): 90.9%; residual activity (CSNK1A1 (human)): 106%; residual activity (ERBB4 (human)): 102%; residual activity (RPS6KA4 KD2 (human)): 94.6%; residual activity (CDC42BPA (human)): 102%; residual activity (MAP3K14 (human)): 96%; residual activity (AURKC (human)): 91.3%
Cc1ccc(NC2=CC(=O)c3sc(C)nc3C2=O)cc1 | 80.6 | 86.6 | 117 | 101 | 95.2 | 105 | 88.7 | 98.9 | 114 | 96.8 | 97.6 | 98.9 | 89.9 | 94.3 | 108 | 100 | 93.2 | 96.9 | 85.9 | 107 | residual activity (HIPK1 (human)): 96.7%; residual activity (FGFR3 (human)): 86%; residual activity (ACVR1B (human)): 110%; residual activity (STK24 (human)): 82.8%; residual activity (FER (human)): 83.9%; residual activity (MAP2K2 (human)): 98.8%; residual activity (MATK (human)): 88.3%; residual activity (PTK2 (human)): 102%; residual activity (PRKCH (human)): 89.4%; residual activity (KDR (human)): 101%; residual activity (MAP3K3 (human)): 120%; residual activity (LIMK1 (human)): 104%; residual activity (ACVRL1 (human)): 101%; residual activity (VRK1 (human)): 108%; residual activity (CSNK1A1 (human)): 106%; residual activity (ERBB4 (human)): 98.5%; residual activity (RPS6KA4 KD2 (human)): 88.4%; residual activity (CDC42BPA (human)): 77.6%; residual activity (MAP3K14 (human)): 98.2%; residual activity (AURKC (human)): 90.7%
CC(=O)c1ccc(N2CCOCC2)cc1O | 105 | 115 | 139 | 101 | 101 | 106 | 96.5 | 108 | 94.8 | 105 | 103 | 98.4 | 100 | 101 | 115 | 96.9 | 102 | 101 | 94.7 | 95.6 | residual activity (HIPK1 (human)): 93.9%; residual activity (FGFR3 (human)): 105%; residual activity (ACVR1B (human)): 100%; residual activity (STK24 (human)): 99%; residual activity (FER (human)): 90.4%; residual activity (MAP2K2 (human)): 99.8%; residual activity (MATK (human)): 92.1%; residual activity (PTK2 (human)): 107%; residual activity (PRKCH (human)): 99.3%; residual activity (KDR (human)): 97.7%; residual activity (MAP3K3 (human)): 108%; residual activity (LIMK1 (human)): 93.6%; residual activity (ACVRL1 (human)): 103%; residual activity (VRK1 (human)): 98.1%; residual activity (CSNK1A1 (human)): 110%; residual activity (ERBB4 (human)): 107%; residual activity (RPS6KA4 KD2 (human)): 103%; residual activity (CDC42BPA (human)): 100%; residual activity (MAP3K14 (human)): 82.6%; residual activity (AURKC (human)): 104%
c1ccc(-c2n[nH]c3c2oc2ccccc23)cc1 | 107 | 101 | 95.6 | 80.7 | 99.8 | 95.9 | 91.5 | 94.1 | 124 | 79.8 | 78.2 | 94.8 | 78.1 | 85.8 | 117 | 92.9 | 77 | 105 | 73.7 | 92.3 | residual activity (HIPK1 (human)): 103%; residual activity (FGFR3 (human)): 97.5%; residual activity (ACVR1B (human)): 96.6%; residual activity (STK24 (human)): 75.3%; residual activity (FER (human)): 103%; residual activity (MAP2K2 (human)): 85.8%; residual activity (MATK (human)): 94%; residual activity (PTK2 (human)): 94.7%; residual activity (PRKCH (human)): 80.9%; residual activity (KDR (human)): 107%; residual activity (MAP3K3 (human)): 94.7%; residual activity (LIMK1 (human)): 71.2%; residual activity (ACVRL1 (human)): 111%; residual activity (VRK1 (human)): 83.1%; residual activity (CSNK1A1 (human)): 73.8%; residual activity (ERBB4 (human)): 89.7%; residual activity (RPS6KA4 KD2 (human)): 90.2%; residual activity (CDC42BPA (human)): 87.4%; residual activity (MAP3K14 (human)): 71.8%; residual activity (AURKC (human)): 96.7%
